Experiments:
[1] = target: T1, hVR1 (Homo sapiens, UniProt Q8NER1); assay: Functional test on human VR1, 45° C. stimulus; type: cell-based, human being; details: for IC50: read-out: IC50 (human being) [nM], 45° C.
T1 construct: expressed in transfected cells; host or cells: CHO K1 cells (ECACC), stably transfected

[2] = target: T1, hVR1; assay: Functional test on VR1, FLIPR Ca2+ influx in transfected CHO K1 cells, capsaicin; type: cell-based, human being; design: key to Ki (human being) [nM] Cap: agonist / partial agonist / no effect: AG=agonist; pAG=partial agonist; NE=no effect; details: for Ki: capsaicin (Cap), includes values given in brackets after pAG, read-out: Ki (human being) [nM] Cap
Description: In the process, the Ca^2+ influx is quantified in the FLIPR assay with the aid of a Ca^2+-sensitive dye (type Fluo-4, Molecular Probes Europe BV, Leiden, the Netherlands) in a fluorescent imaging plate reader (FLIPR, Molecular Devices, Sunnyvale, USA), as described hereinafter.
II. Functional Tests Carried Out on the Vanilloid Receptor (VR1)
The agonistic or antagonistic effect of the substances to be tested on the vanilloid receptor 1 (VR1) can also be determined using the following assay. In this assay, the influx of Ca^2+ through the channel is quantified with the aid of a Ca^2+-sensitive dye (type Fluo-4, Molecular Probes Europe BV, Leiden, the Netherlands) in a fluorescent imaging plate reader (FLIPR, Molecular Devices, Sunnyvale, USA).
Chinese hamster ovary cells (CHO K1 cells, European Collection of Cell Cultures (ECACC) United Kingdom) are stably transfected with the VR1 gene. For functional testing, these cells are plated out on poly-D-lysine-coated black 96-well plates having a clear base (BD Biosciences, Heidelberg, Germany) at a density of 25,000 cells/well. The cells are incubated overnight at 37° C. and 5% CO2 in a culture medium (Ham's F12 nutrient mixture, 10% by volume of FCS (foetal calf serum), 18 μg/ml of L-proline). The next day the cells are incubated with Fluo-4 (Fluo-4 2 μM, 0.01% by volume of Pluronic F127, Molecular Probes in HBSS (Hank's buffered saline solution), Gibco Invitrogen GmbH, Karlsruhe, Germany) for 30 minutes at 37° C. Subsequently, the plates are washed three times with HBSS buffer and after further incubation for 15 minutes at RT used for Ca^2+ measurement in a FLIPR assay. The Ca^2+-dependent fluorescence is measured before and after the addition of the substances to be tested (λex wavelength=488 nm, λem=540 nm). Quantification is carried out by measuring the highest fluorescence intensity (FC, fluorescence counts) over time.
The FLIPR protocol consists of 2 substance additions. First the compounds to be tested (10 μM) are pipetted onto the cells and the Ca^2+ influx is compared with the control (capsaicin 10 μM) (% activation based on the Ca^2+ signal after the addition of 10 μM of capsaicin). After 5 minutes' incubation, 100 nM of capsaicin are applied and the Ca^2+ influx is also determined.
Desensitising agonists and antagonists led to suppression of the Ca^2+ influx. The % inhibition is calculated compared to the maximum achievable inhibition with 10 μM of capsaicin.
Starting from the percentage displacement caused by different concentrations of the compounds to be tested of general formula I, IC50 inhibitory concentrations which cause a 50-per cent displacement of capsaicin were calculated. Ki values for the test substances were obtained by conversion by means of the Cheng-Prusoff equation (Cheng, Prusoff; Biochem. Pharmacol. 22, 3099-3108, 1973).
The affinity of the compounds according to the invention for the vanilloid receptor 1 (VR1/TRPV1 receptor) was determined as described hereinbefore (pharmacological methods I and II respectively).

[3] = read-out: IC50 (human being), 45° C.: inhibition (as a percentage)

T1 sequence (Q8NER1 whole entry): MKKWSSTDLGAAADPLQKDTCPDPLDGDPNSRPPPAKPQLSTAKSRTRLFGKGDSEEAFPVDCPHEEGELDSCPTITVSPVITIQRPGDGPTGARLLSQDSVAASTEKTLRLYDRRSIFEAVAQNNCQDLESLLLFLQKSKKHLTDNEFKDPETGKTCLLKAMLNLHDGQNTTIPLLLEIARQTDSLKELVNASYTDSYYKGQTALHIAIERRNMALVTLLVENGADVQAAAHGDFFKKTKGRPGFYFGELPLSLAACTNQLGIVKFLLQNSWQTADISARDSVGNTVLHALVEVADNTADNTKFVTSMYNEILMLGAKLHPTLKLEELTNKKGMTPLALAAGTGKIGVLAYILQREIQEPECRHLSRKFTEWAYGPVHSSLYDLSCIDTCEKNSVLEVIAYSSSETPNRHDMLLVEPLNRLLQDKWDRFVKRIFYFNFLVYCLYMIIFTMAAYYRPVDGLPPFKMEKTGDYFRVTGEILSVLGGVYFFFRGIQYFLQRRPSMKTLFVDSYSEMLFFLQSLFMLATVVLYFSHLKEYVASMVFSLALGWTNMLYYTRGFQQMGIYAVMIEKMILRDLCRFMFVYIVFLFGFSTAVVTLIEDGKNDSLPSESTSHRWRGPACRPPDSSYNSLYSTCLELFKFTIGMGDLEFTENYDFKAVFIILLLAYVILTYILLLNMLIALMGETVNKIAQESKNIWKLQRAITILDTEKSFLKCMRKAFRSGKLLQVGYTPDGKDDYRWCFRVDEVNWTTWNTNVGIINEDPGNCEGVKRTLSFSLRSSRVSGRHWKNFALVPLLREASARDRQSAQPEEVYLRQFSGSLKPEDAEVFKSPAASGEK

| SMILES | Ki [2] [nM] | other results |
| --- | --- | --- |
| CC(C(=O)NCc1cc(C(F)(F)F)nn1-c1cccc(Cl)c1)c1cccc2c1CC=C2 (stereo not shown) [Example 24, N-((1-(3-chlorophenyl)-3-(trifluoromethyl)-1H-pyrazol-5-yl)methyl)-2-(1H-inden-7-yl)propanamide] | 4 | IC50 [1]: 686 nM |
| O=C(NCc1cc(C(F)(F)F)nn1-c1cccc(Cl)c1)Nc1ccc2c(c1)OCO2 [Example 83, 1-(Benzo[d][1,3]dioxol-5-yl)-3-((1-(3-chlorophenyl)-3-(trifluoromethyl)-1H-pyrazol-5-yl)methyl)urea] | 50.7 | inhibition at 2.5 µM [1, 3]: 16% |
| O=C(NCc1cc(C(F)(F)F)nn1-c1cccc(Cl)c1)Nc1ccc2scnc2c1 [Example 97, 1-(benzo[d]thiazol-5-yl)-3-((1-(3-chlorophenyl)-3-(trifluoromethyl)-1H-pyrazol-5-yl)methyl)urea] | 4.9 | IC50 [1]: 396 nM |
| CC(C)(C)c1cc(CNC(=O)Nc2cccc3ccc(O)cc23)n(-c2cccc(Cl)c2)n1 [Example 101, 1-((3-tert-butyl-1-(3-chlorophenyl)-1H-pyrazol-5-yl)methyl)-3-(7-hydroxynaphthalen-1-yl)urea] | 0.5 | inhibition at 2.5 µM [1, 3]: 46% |
| O=C(NCc1cc(C(F)(F)F)nn1-c1cccc(Cl)c1)Nc1cccc2ccc(O)cc12 [Example 102, 1-((1-(3-chlorophenyl)-3-(trifluoromethyl)-1H-pyrazol-5-yl)methyl)-3-(7-hydroxynaphthalen-1-yl)urea] | 0.2 | inhibition at 2.5 µM [1, 3]: 48% |
| CC(C)(C)c1cc(CNC(=O)Nc2cccc3cccnc23)n(-c2cccc(Cl)c2)n1 [Example 107, 1-((3-tert-butyl-1-(3-chlorophenyl)-1H-pyrazol-5-yl)methyl)-3-(quinolin-8-yl)urea] | 22.4 | IC50 [1]: 375 nM |
| O=C(NCc1cc(C(F)(F)F)nn1-c1cccc(Cl)c1)Nc1cccc2cnccc12 [Example 110, 1-((1-(3-chlorophenyl)-3-(trifluoromethyl)-1H-pyrazol-5-yl)methyl)-3-(isoquinolin-5-yl)urea] | 0.4 | IC50 [1]: 110 nM |
| CC(C(=O)NCc1cc(C(F)(F)F)nn1-c1cccc(Cl)c1)c1ccc2c(c1)C=CC(C)(C)O2 (stereo not shown) [Example 190, N-((1-(3-chlorophenyl)-3-(trifluoromethyl)-1H-pyrazol-5-yl)methyl)-2-(2,2-dimethyl-2H-chromen-6-yl)propanamide] | 30.4 |  |
| CC(C(=O)NCc1cc(C(F)(F)F)nn1-c1cccc(Cl)c1)c1ccc2c(cnn2S(C)(=O)=O)c1 (stereo not shown) [Example 191, N-((1-(3-chlorophenyl)-3-(trifluoromethyl)-1H-pyrazol-5-yl)methyl)-2-(1-(methylsulfonyl)-1H-indazol-5-yl)propanamide] | 0.6 | Ki (human being) [nM] Cap: agonist / partial agonist / no effect [2]: pAG |
| Cc1cc2c(NC(=O)NCc3cc(C(F)(F)F)nn3-c3cccc(Cl)c3)cccc2[nH]1 [Example 192, 1-((1-(3-chlorophenyl)-3-(trifluoromethyl)-1H-pyrazol-5-yl)methyl)-3-(2-methyl-1H-indol-4-yl)urea] | 10.8 |  |
| CC(C(=O)NCc1cc(C(C)(C)C)nn1-c1cccc(Cl)c1)c1cc(F)cc2[nH]ncc12 (stereo not shown) [Example 193, N-((3-tert-butyl-1-(3-chlorophenyl)-1H-pyrazol-5-yl)methyl)-2-(6-fluoro-1H-indazol-4-yl)propanamide] | 1.6 |  |
| O=C(NCc1cc(C(F)(F)F)nn1-c1cccc(Cl)c1)Nc1cc(F)cc2[nH]ncc12 [Example 194, 1-((1-(3-chlorophenyl)-3-(trifluoromethyl)-1H-pyrazol-5-yl)methyl)-3-(6-fluoro-1H-indazol-4-yl)urea] | 8.4 |  |
| CC(C(=O)NCc1cc(C(F)(F)F)nn1-c1cccc(Cl)c1)c1ccc(F)c2[nH]ncc12 (stereo not shown) [Example 195, N-((1-(3-chlorophenyl)-3-(trifluoromethyl)-1H-pyrazol-5-yl)methyl)-2-(7-fluoro-1H-indazol-4-yl)propanamide] | 6.8 |  |
| O=C(NCc1cc(C(F)(F)F)nn1-c1cccc(Cl)c1)Nc1cccc2c(=O)[nH]ccc12 [Example 196, 1-((1-(3-chlorophenyl)-3-(trifluoromethyl)-1H-pyrazol-5-yl)methyl)-3-(1-oxo-1,2-dihydroisoquinolin-5-yl)urea] |  | Ki (human being) [nM] Cap: agonist / partial agonist / no effect [2]: AG |
| CC(C(=O)NCc1cc(C(F)(F)F)nn1-c1cccc(Cl)c1)c1cccc2c(F)cccc12 (stereo not shown) [Example 197, N-((1-(3-chlorophenyl)-3-(trifluoromethyl)-1H-pyrazol-5-yl)methyl)-2-(5-fluoronaphthalen-1-yl)propanamide] | 5.8 |  |
| CC(C(=O)NCc1cc(C(F)(F)F)nn1-c1cccc(Cl)c1)c1cccc2c1ccc[n+]2[O-] (stereo not shown) [Example 198, 5-(1-((1-(3-chlorophenyl)-3-(trifluoromethyl)-1H-pyrazol-5-yl)methylamino)-1-oxopropan-2-yl)quinolin 1-oxide] |  | Ki (human being) [nM] Cap: agonist / partial agonist / no effect [2]: AG |
| CCCCCn1nc(C(F)(F)F)cc1CNC(=O)C(C)c1cccc2[nH]ncc12 (stereo not shown) [Example 199, 2-(1H-indazol-4-yl)-N-((1-pentyl-3-(trifluoromethyl)-1H-pyrazol-5-yl)methyl)propanamide] | 33.5 |  |
| Cc1c(C(F)(F)F)nn(-c2cccc(Cl)c2)c1CNC(=O)C(C)c1ccc2c(c1)OCCO2 (stereo not shown) [Example 200, N-((1-(3-chlorophenyl)-4-methyl-3-(trifluoromethyl)-1H-pyrazol-5-yl)methyl)-2-(2,3-dihydrobenzo[b][1,4]dioxin-6-yl)propanamide] | 17.1 |  |
| O=C(NCc1cc(C(F)(F)F)nn1-c1cccc(Cl)c1)Nc1c(Cl)ccc2[nH]ncc12 [Example 205, 1-(5-chloro-1H-indazol-4-yl)-3-((1-(3-chlorophenyl)-3-(trifluoromethyl)-1H-pyrazol-5-yl)methyl)urea] | 0.8 |  |
| CC(C(=O)NCc1cc(C(F)(F)F)nn1-c1cccc(Cl)c1)c1cccc2c1CCC2=O (stereo not shown) [Example 206, N-((1-(3-chlorophenyl)-3-(trifluoromethyl)-1H-pyrazol-5-yl)methyl)-2-(1-oxo-2,3-dihydro-1H-inden-4-yl)propanamide] | 0.4 | Ki (human being) [nM] Cap: agonist / partial agonist / no effect [2]: pAG |
| CC(C(=O)NCc1cc(C(F)(F)F)nn1-c1cccc(Cl)c1)c1cccc2c1CCC2O (stereo not shown) [Example 207, N-((1-(3-chlorophenyl)-3-(trifluoromethyl)-1H-pyrazol-5-yl)methyl)-2-(1-hydroxy-2,3-dihydro-1H-inden-4-yl)propanamide] | 2.4 | inhibition at 10 µM ([1]; @ 10 μM, read-out: IC50 (human being), 45° C.: inhibition (as a percentage)): 14% |
| CC(C(=O)NCc1cc(C(F)(F)F)nn1-c1cccc(Cl)c1)c1cccc2c1CC(O)C2 (stereo not shown) [Example 208, N-((1-(3-chlorophenyl)-3-(trifluoromethyl)-1H-pyrazol-5-yl)methyl)-2-(2-hydroxy-2,3-dihydro-1H-inden-4-yl)propanamide] | 62.6 | IC50 [1]: 298 nM |
| CC(C(=O)NCc1cc(C(F)(F)F)nn1-c1cccc(Cl)c1)c1cccc2cn[nH]c12 (stereo not shown) [Example 210, N-((1-(3-chlorophenyl)-3-(trifluoromethyl)-1H-pyrazol-5-yl)methyl)-2-(1H-indazol-7-yl)propanamide] | 8.1 |  |
| CC(C(=O)NCc1cc(C(F)(F)F)nn1-c1cccc(Cl)c1)c1cccc2cc(F)ccc12 (stereo not shown) [Example 211, N-((1-(3-chlorophenyl)-3-(trifluoromethyl)-1H-pyrazol-5-yl)methyl)-2-(6-fluornaphthalen-1-yl)propanamide] |  | IC50 [1]: 154 nM |
| COc1ccc2cccc(C(C)C(=O)NCc3cc(C(F)(F)F)nn3-c3cccc(Cl)c3)c2c1 (stereo not shown) [Example 212, N-((1-(3-chlorophenyl)-3-(trifluoromethyl)-1H-pyrazol-5-yl)methyl)-2-(7-methoxynaphthalen-1-yl)propanamide] | 8.3 | IC50 [1]: 626 nM |
